Results reported in patent publication US9290555B2, “Reagents and methods for treating dental disease” (University of Washington Through its Center for …, priority 2011, dated 2016).
“Also recorded” adds a separate entry of the source.

B1: rM180: recombinant mouse 180 amino acid long amelogenin (protein, UniProt P63277 17-210, looked up)
Amelogenin, X isoform: MPLPPHPGSPGYINLSYEKSHSQAINTDRTALVLTPLKWYQSMIRQPYPSYGYEPMGGWLHHQIIPVLSQQHPPSHTLQPHHHLPVVPAQQPVAPQQPMMPVPGHHSMTPTQHHQPNIPPSAQQPFQQPFQPQAIPPQSHQPMQPQSPLHPMQPLAPQPPLPPLFSMQPLSPILPELPLEAWPATDKTKREEVD

How the values were obtained:
Binding analysis via QCM = settings: for Kd: binding to HAp, read-out: KD (dissociation constant); for binding affinity to HAp (in words): compared with ADP1, ADP2, ADP4, ADP7
Experimental: Calcium phosphate coated QCM electrodes were purchased commercially. (Q-Sense, Sweden) The diameter of the crystals and electrodes were 8.8 mm and 5.0 mm, respectively. […] A 12 V DC current was applied to the oscillator circuit to drive the crystal, and the frequency was measured with a Hewlett-Packard 53131A frequency counter sampling at 225 Hz (Universal Counter, Agilent Technologies). After the crystal was mounted in the cell, they were cleaned and dried with high-purity nitrogen gas and used immediately. To establish a stable baseline, a sufficient amount of buffer solution was introduced into the cell before adding the peptide. The frequency change of the crystal in pure buffer solution was recorded for 30 to 60 minutes. After this, the desired amount of ADPs was introduced into the cell and the frequency change was recorded continuously.
The dissociation constants (KD) of the peptides were determined. The KD is an equilibrium constant that represents the concentration necessary to achieve 50% surface coverage. […] (FIG. 2a, Table 1)

[1] = In vitro solution biomineralization, alkaline phosphatase based mineralization model; assay type: biochemical; settings: for mineralization trend (kinetics): 0.4 mM peptide, 24 mM Ca2+, 14.4 mM β-GP, 37° C., initial 90 minutes; for available free Ca2+ consumed: at the end of the 90 minutes
Experimental: An alkaline phosphatase (AP) based mineralization model was used as described before to investigate the mineralization behaviors of the peptides (22) (see Supporting Information for details). […]
(§1) For the mineralization experiments, mineralization solutions containing 24 mM Ca^2+ and 14.4 mM β-GP and 0.4 mM peptide was prepared in 25 mM Tris-HCl buffer (pH 7.4). A mineralization solution containing no peptide was prepared as the negative control. Mineralization reactions were commenced by adding bacterial AP to the solution at a final concentration of 1.4×10^−6 g/mL. Subsequent mineral formation kinetics was monitored by continuous measuring of absorbance at 820 nm wave length using a Tecan Safire microplate reader (Tecan Trading AG, Switzerland) as well as by periodic assays of calcium ions throughout the reaction. For periodic assays of calcium and phosphate, 10 μL of the reaction solution was collected at 0.25-, 0.5-, 1- and 1.5-hr. The calcium concentration in the solutions was determined using QuantiChrome Calcium Assay Kit (Bioassays, U.S.A.). All mineralization reactions were carried out at 37° C. Samples for electron microscopy analysis were prepared by placing a 10 μL aliquot from the reaction solution onto a carbon coated TEM grid. After 1 min, liquid on the TEM grid was carefully wicked away and the grids were vacuum-dried for 5 min. The dried grids were stored in a desiccated container until analyzed. SEM imaging was performed at 10 kV using a JSM 7000F (JEOL, Japan) SEM in secondary electron imaging mode. TEM imaging and electron diffraction analysis were performed using an EMS 420T TEM (FEI, Inc., USA; formerly Philips, The Netherlands) operated at 120 kV.

[2] = Microstructural and crystallographic analysis of the synthesized minerals (SEM, TEM, XRD); settings: for mineral morphology: SEM/TEM of minerals formed in solution with peptide; for crystal phase of the mineral formed (XRD): XRD of minerals formed in solution; for amount of radiating crystalline blade-like particles emanating from the spherulites: compared to weak binders and no peptide control
Experimental: as §1

[3] = Ex vivo re-mineralization of tooth root; design: species or system human
Experimental: The cementum-root stock blocks were prepared from single rooted, extracted adult teeth collected at the University of Washington Dental School clinics. No individual identifiers were used and the use of such material complied with the Institutional Review Board guidelines. The teeth were kept in 70% ethanol solution at 4° C. until the specimens were prepared. Cylindrical blocks of 4 mm diameter were cut from the acellular cementum, close to the cementoenamel junction using a trephine bur. The teeth were kept immersed in 70% ethanol-phosphate buffered saline (PBS) during the cutting to prevent heat damage due to friction. The cut cylindrical blocks were cleaned of contaminating material using PBS and demineralized with 35% phosphoric acid gel for 10 seconds. The specimens were stored in 70% ethanol-PBS solution at 4° C. until used.
Prior to coating the specimens with the peptide, the previously cut cylindrical blocks were rehydrated and equilibrated for 2 hours in 24 mM Tris-HCl buffer, pH 7.4. The lyophilized ADP was dissolved in 24 mM Tris-HCl buffer, pH 7.4 to a final concentration of 0.4 mM. A 50 μl drop of the ADP solution was dropped on top of the specimens and left on the specimen for 10 minutes at room temperature in a water saturated chamber to prevent evaporation. Control specimens were identically prepared only by dropping 50 μl of buffer alone. At the end of 10 minutes, the samples were rinsed twice with deionized water. Fluorescent microscopy analysis was performed with fluorescein isothiocyanate-labeled ADP (fADP).
Solutions of 9.6 mM CaCl2 and 5.6 mM (PO4)^−3, a mixture of NaH2PO4—H2O and Na2HPO4-7H20, were prepared in 24 mM Tris-HCl buffer, pH 7.4. The peptide coated and non-coated control specimens were placed in 300 μl of Ca^+2 solution and an equal volume of (PO4)^−3 solution was added to achieve a final concentration of 4.8 mM of Ca^+2 and 2.8 mM of (PO4)^−3. The specimens were incubated in the mineralization solution for 2 hours at 37° C. in a water saturated atmosphere, removed from the mineralization solution and rinsed with 24 mM Tris-HCl buffer, pH 7.4. […]

Molecule	Kd (Binding analysis via QCM)	binding affinity to HAp (in words) (Binding analysis via QCM)	mineralization trend (kinetics) [1]	available free Ca2+ consumed [1]	mineral morphology [2]	Ca/P ratio ([3]; EDX spectra of the cementomimetic layer)	thickness of mineral layer ([3]; SEM and TEM cross-section)	elemental composition by EDS ([3]; peptide coated samples after 2 hours)	crystal phase of the mineral formed (XRD) [2]	amount of radiating crystalline blade-like particles emanating from the spherulites [2]	crystal phase of the mineral formed (XRD) ([2]; listed as amelogenin)
PGYINLSYEKSHSQAINTDRTA [ADP5]	50 µM	lower	fast mineralization trend	more than half	much smaller spherulites	1.67	10-15 μm	substantial Ca and P peaks	–	–	–
HPPSHTLQPHHHLPVV [ADP4]	1.43 µM	–	–	–	spherulitic particles	–	–	–	none of the other strong binders	slightly higher	–
LPPLFSMPLSPILPELPLEAWPAT [ADP6]	6.25 µM	lower	–	–	spherulitic particles	–	–	–	–	–	–
HTLQPHHHLPVV [ADP1]	1.4 µM	–	–	–	spherulitic particles	–	–	–	none of the other strong binders	slightly higher	–
PAQQPVAPQQPMMP [ADP8]	3.14 µM	lower	–	–	spherulitic particles	–	–	–	–	–	–
WPATDKTKREEVD [ADP3]	6.4 µM	lower	–	–	spherulitic particles	–	–	–	–	–	–
HPPSHTLQPHHHLPVVPAQQPVAPQQPMMPVPGHHSMTPTQH [ADP7]	1.15 µM	–	slow mineralization trend	–	Needle like nano-crystals	–	–	–	crystalline HAp; also recorded: HA precipitation was only observed in ADP7; also recorded: characteristic peaks belonging to the HAp crystal structure	–	–
VPGHHSMTPTQH [ADP2]	1.61 µM	–	–	–	spherulitic particles	–	–	–	none of the other strong binders	slightly higher	–
B1	–	–	fast mineralization trend	more than half	Needle like nano-crystals	–	–	–	crystalline HAp	–	characteristic peaks belonging to the HAp crystal structure
